The target in data set [1] is T1, calf intestinal alkaline phosphatase (CIAP) (Bos taurus, UniProt P19111). The data set can be described thus: Alkaline phosphatase inhibition assay (spectrophotometric, p-NPP substrate). It is filed as biochemical. The following applies: for IC50: CIAP, p-NPP substrate, pH 9.5, 37 °C, mean ± SEM. How it is done: As previously mentioned, spectrophotometric analysis was used to evaluate the activity of calf intestinal alkaline phosphatase (CIAP). The reaction mixture contained 50 mM Tris-HCl buffer (5 mM MgCl2, 0.1 mM ZnCl2 pH 9.5), the 10 µL compound, and it was preincubated for 10 min by adding 5 µL of CIAP (0.025 U/mL). Then, 10 µL of a substrate (0.5 mM p-NPP (para nitrophenyl phosphate disodium salt)) was delivered to initiate the response, and therefore the assay mixture became incubated once more for 30 min at 37 °C. The change in absorbance of released p-nitrophenolate was monitored at 405 nm, using a 96-well microplate reader (Thermo Scientific Multiskan GO, USA). All the experiments were repeated three times in a triplicate manner. […] The inhibition activity was calculated according to the following equation: Inhibition (%)=[(Blank−Sample)/Blank]×100
T1 sequence (P19111 20-533): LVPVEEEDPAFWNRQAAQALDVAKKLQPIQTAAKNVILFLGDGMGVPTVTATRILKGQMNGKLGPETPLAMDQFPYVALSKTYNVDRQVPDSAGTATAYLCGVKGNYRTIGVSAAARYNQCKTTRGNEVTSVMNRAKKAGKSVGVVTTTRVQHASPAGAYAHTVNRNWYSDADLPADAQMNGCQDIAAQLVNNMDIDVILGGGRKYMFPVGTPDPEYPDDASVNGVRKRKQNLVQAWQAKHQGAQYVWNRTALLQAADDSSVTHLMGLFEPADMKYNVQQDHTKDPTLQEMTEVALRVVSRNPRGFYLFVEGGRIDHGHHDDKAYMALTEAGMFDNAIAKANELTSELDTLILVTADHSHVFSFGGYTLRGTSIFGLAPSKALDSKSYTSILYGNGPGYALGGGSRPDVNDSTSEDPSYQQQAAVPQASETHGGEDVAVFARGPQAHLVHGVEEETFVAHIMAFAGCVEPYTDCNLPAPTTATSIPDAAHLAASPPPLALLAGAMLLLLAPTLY
For calculation of the IC50 values, 6–8 serial dilutions were used and the results examined using the non-linear regression analysis of GraphPad Prism 5 [69].

The nature of another data set: MTT cell viability assay. It is filed as cell-based. The conditions noted are these: human, MG-63 osteosarcoma cells, MG-63 cells. How it is done:
The human osteosarcoma MG-63 cells were acquired from the Korean Cell Line Bank (Seoul, Korea). The MG-63 cell lines were incubated in the humidified atmosphere at 37 °C containing 5% CO2 and maintained in the DMEM (Sigma, St. Louis, MO, USA), supplemented with 10% fetal bovine serum (FBS, WELGENE, Korea) and 50 unit/mL penicillin (Sigma) and 50 μg/mL streptomycin (Sigma). The medium was completely renewed every two days. The synthesized compounds were completely dissolved in dimethyl sulfoxide (DMSO) and further diluted to various concentrations (0, 0.5, 1, 2, and 4 µM). The control groups were treated with the same amount of DMSO. MTT assay technique was applied to check the toxic effect of our compounds. The MG-63 cell lines were seeded onto 96-well plates at a density of 0.4 × 10^5 cells/well with the medium for 24 h. After reaching 50% density, the cells were exposed to synthesized target compounds at the dose of 0, 0.5, 1, 2, and 4 µM for 24 h in media. […] After 24 h, the cell sustained 100 μL DMEM containing of 0.5 mg/mL 3-(4,5-dimethylthiazol-2-yl)-2,5-diphenyltetrazolium bromide (MTT) at 37 °C for 4 h. Then, the purple formazan crystals were dissolved with 100 μL of buffer (10% SDS, 0.01 N HCl). Finally, the absorbance was measured at 570 nm using a microplate reader (Thermo Fisher, Waltham, MA, USA).
In general terms: Formazan colour is commonly taken as a measure of viable cells.

Data set [2] has as its system tissue-specific isozymes (PLALP, GCALP, and IALP) versus L/B/K ALPs. Details: method as in PMID 2178806. The conditions noted are these: cited from earlier work.
The target of the next data set is ALP. The following applies: ALP inhibitors; cited from earlier work.
Data set [3] deals with T1, calf intestinal alkaline phosphatase (CIAP). As to the kind of experiment: Kinetic mechanism analysis (Lineweaver-Burk plot). It is filed as biochemical. How it is done:
The inhibitor (7g), and substrate p-NPP concentrations were used at 0.00, 0.023, 0.045 and 0.091 µM, 10, 5, 2.5, 1.25, 0.625 and 0.3125 mM, respectively. The pre-incubation time and other conditions were the same as those mentioned in the section on the CIAP assay. Maximal initial velocities were determined from the initial linear portion of absorbances up to 10 min after the addition of enzyme per minute interval. The inhibition type of the enzyme was assayed by the Lineweaver–Burk plot of inverse velocities (1/V) versus the inverse of substrate concentration 1/[S] mM^−1. The EI dissociation constant Ki was determined by a secondary plot of 1/V versus inhibitor concentration.

Data set [4] is described as follows: DPPH free radical scavenging assay. The conditions noted are these: 100 µg/mL. On the procedure: Free radical scavenging activity was determined by modifying the method by DPPH assay. The assay solution composed of the 100 μL of DPPH (150 μM) and 20 μL of the sample (100 μg/mL) was introduced to gain the final volume of each well up to 200 μL with methyl alcohol. Then, it was incubated in the dark at room temperature for the following half-hour. Ascorbic acid (Vitamin C) was used as a reference inhibitor. The measurements were performed by using a microplate reader (Thermo Scientific Multiskan GO, USA) at 517 nm. Each experiment was carried out in triplicate.

Each structure is given as a SMILES string. Entries after “also recorded” stand apart in the source; their conditions may differ.

Broadly, the IC50 is the midpoint of a concentration-inhibition curve. The low end stands for greater potency in that assay, the high end for weaker potency in that assay. The melting point is the temperature of the solid-liquid transition. Broadly, the viability is the share of living cells, or the viability signal relative to a control. Lower therefore signals more harm to the cells. By Ki is commonly meant the dissociation constant of the complex between target and ligand, obtained from inhibition or displacement. Broadly, the Km is the substrate concentration at which the rate is half of its maximum.

Take `CCOC(=O)C=C1SC(N2N=C(c3ccccc3)CC2c2ccc(C)cc2)=NC1=O` (stereo not drawn) [Compound 7b, Ethyl-2-(4-oxo-2-(3-phenyl-5-(p-tolyl)-4,5-dihydro-1H-pyrazol-1-yl)thiazol-5(4H)-ylidene)acetate]: the melting point was in the range of 226 to 228 °C. For the same molecule, the IC50 in data set [1] came to 2300 ± 151 nM.
Molecule `CCOC(=O)C=C1SC(N2N=C(c3ccc(OC)cc3)CC2c2ccccc2)=NC1=O` (stereo not drawn) [Compound 7j, Ethyl-2-(2-(3-(4-methoxyphenyl)-5-phenyl-4,5-dihydro-1H-pyrazol-1-yl)-4-oxothiazol-5(4H)-ylidene)acetate] registered a melting point of 167 to 169 °C. This molecule had a viability at 24 h, 4 µM in “MTT cell viability assay” not above 70%. In data set [1], this molecule displayed an IC50 of 434 ± 11 nM.
For the molecule `N[C@@H](Cc1ccccc1)C(=O)O` [L-phenylalanine], the “sensitivity of inhibition of tissue-specific isozymes (PLALP, GCALP, IALP) relative to L/B/K ALPs” value in data set [2] is reported as 30 times.
Take `CCOC(=O)C=C1SC(N2N=C(c3ccc(OC)cc3)CC2c2ccc(OC)cc2)=NC1=O` (stereo not drawn) [Compound 7k, Ethyl-2-(2-(3,5-bis(4-methoxyphenyl)-4,5-dihydro-1H-pyrazol-1-yl)-4-oxothiazol-5(4H)-ylidene)acetate]: the melting point lay within 208 to 210 °C. In data set [1], this molecule displayed an IC50 of 75 ± 5 nM.
The corresponding values for `CCOC(=O)C=C1SC(N2N=C(c3ccc(OC)cc3)CC2c2ccc(F)cc2)=NC1=O` (stereo not drawn) [Compound 7i, Ethyl-2-(2-(5-(4-fluorophenyl)-3-(4-methoxyphenyl)-4,5-dihydro-1H-pyrazol-1-yl)-4-oxothiazol-5(4H)-ylidene)acetate] are 210 to 212 °C and 315 ± 17 nM.
Consider `Cn1c(=O)c2[nH]cnc2n(C)c1=O` [theophylline], for which the Ki on ALP was 82000 nM.
Regarding `c1ccc([C@H]2CN3CCSC3=N2)cc1` [levamisole], the Ki at ALP was 16000 nM.
Molecule `CCOC(=O)C=C1SC(N2N=C(c3ccccc3)CC2c2ccc(OCc3ccccc3)c(OC)c2)=NC1=O` (stereo not drawn) [Compound 7d, Ethyl-2-(2-(5-(4-(benzyloxy)-3-methoxyphenyl)-3-phenyl-4,5-dihydro-1H-pyrazol-1-yl)-4-oxothiazol-5(4H)-ylidene)acetate] yielded a melting point of 202 to 204 °C. The same molecule displayed an IC50 in data set [1] of 293 ± 39 nM.
For `CCOC(=O)C=C1SC(N2N=C(c3ccc(OC)cc3)CC2c2ccc(OCc3ccccc3)c(OC)c2)=NC1=O` (stereo not drawn) [Compound 7g, Ethyl-2-(2-(5-(4-(benzyloxy)-3-methoxyphenyl)-3-(4-methoxyphenyl)-4,5-dihydro-1H-pyrazol-1-yl)-4-oxothiazol-5(4H)-ylidene)acetate], the melting point was 228 to 230 °C. In data set [3] (Lineweaver-Burk plot, substrate p-NPP), the “Inhibition Type” value is “non-competitively; also recorded: Non-Competitive”. Also, in data set [3] (inhibitor 7g concentration 0.023 µM), the Vmax is on record as 0.0014 ΔA/Min. For the same molecule, the Vmax in data set [3] (inhibitor 7g concentration 0.045 µM) is listed as 0.0011 ΔA/Min. Besides, in data set [3] (inhibitor 7g concentration 0.091 µM), the Vmax is 0.0009 ΔA/Min. The Ki in data set [3] (secondary plot of slope versus inhibitor concentration, read-out: Ki (EI dissociation constant)) was determined as 93 nM. Also, the Km in data set [3] (substrate p-NPP, inhibitor 7g concentration 0.023 µM) worked out at 500 µM. In addition, the Km in data set [3] (substrate p-NPP, inhibitor 7g concentration 0.045 µM) worked out at 500 µM. In addition, the Michaelis-Menten constant (Km) in data set [3] (substrate p-NPP, inhibitor 7g concentration 0.091 µM) is 500 µM. In addition, the “DPPH free radical scavenging (inhibition)” value in data set [4] is recorded as 29.7%. Also, the IC50 in data set [1] was 45 ± 4 nM. For the same molecule, the “fold more active than monopotassium phosphate (IC50 ratio)” value in data set [1] (versus standard reference monopotassium phosphate) was found to be 116 fold.
In turn, `CCOC(=O)C=C1SC(N2N=C(c3ccc(OC)cc3)CC2c2ccc(C)cc2)=NC1=O` (stereo not drawn) [Compound 7e, Ethyl-2-(2-(3-(4-methoxyphenyl)-5-(p-tolyl)-4,5-dihydro-1H-pyrazol-1-yl)-4-oxothiazol-5(4H)-ylidene)acetate] returned a melting point of 208 to 210 °C. This molecule also yielded a viability at 24 h, 4 µM in “MTT cell viability assay” not above 70%. The IC50 in data set [1] was 228 ± 12 nM.
The molecule `CCOC(=O)C=C1SC(N2N=C(c3ccc(OC)cc3)CC2c2ccc(Br)cc2)=NC1=O` (stereo not drawn) [Compound 7h, Ethyl-2-(2-(5-(4-bromophenyl)-3-(4-methoxyphenyl)-4,5-dihydro-1H-pyrazol-1-yl)-4-oxothiazol-5(4H)-ylidene)acetate] came in with a melting point of 218 to 220 °C. Moreover, the midpoint of inhibition in data set [1], the IC50, lay at 907 ± 41 nM.
In the case of `CCOC(=O)C=C1SC(N2N=C(c3ccccc3)CC2c2ccc(Cl)cc2)=NC1=O` (stereo not drawn) [Compound 7l, Ethyl-2-(2-(5-(4-chlorophenyl)-3-phenyl-4,5-dihydro-1H-pyrazol-1-yl)-4-oxothiazol-5(4H)-ylidene)acetate], the melting point is 251 to 253 °C. In data set [1], the IC50 turned out to be 51 ± 19 nM.
For the molecule `C#Cc1cccc(Nc2ncnc3cc(OCCOC)c(OCCOC)cc23)c1` [erlotinib, reference compound], the viability at 24 h, 2 µM in the data set “MTT cell viability assay” (first three treatments (0.5, 1, 2 µM)) is more than 90%.
Molecule `CCOC(=O)C=C1SC(N2N=C(c3ccccc3)CC2c2ccc(Br)cc2)=NC1=O` (stereo not drawn) [Compound 7a, Ethyl-2-(2-(5-(4-bromophenyl)-3-phenyl-4,5-dihydro-1H-pyrazol-1-yl)-4-oxothiazol-5(4H)-ylidene)acetate] showed a melting point of 242 to 244 °C. In data set [1], this molecule returned an IC50 of 53 ± 1 nM.
Molecule `CCOC(=O)C=C1SC(N2N=C(c3ccc(OC)cc3)CC2c2ccc(Cl)cc2)=NC1=O` (stereo not drawn) [Compound 7m, Ethyl-2-(2-(5-(4-chlorophenyl)-3-(4-methoxyphenyl)-4,5-dihydro-1H-pyrazol-1-yl)-4-oxothiazol-5(4H)-ylidene)acetate] displayed a melting point of 220 to 222 °C. Further, the viability at 24 h, 4 µM in the data set “MTT cell viability assay” is not above 70%. Moreover, the IC50 in data set [1] came out at 302 ± 4 nM.
As for `CCOC(=O)C=C1SC(N2N=C(c3ccc(OC)cc3)CC2c2ccc(Cl)cc2Cl)=NC1=O` (stereo not drawn) [Compound 7f, Ethyl-2-(2-(5-(2,4-dichlorophenyl)-3-(4-methoxyphenyl)-4,5-dihydro-1H-pyrazol-1-yl)-4-oxothiazol-5(4H)-ylidene)acetate], the melting point was more than 260 °C. For the same molecule, in data set [1], the IC50 amounted to 566 ± 48 nM.
With `CCOC(=O)C=C1SC(N2N=C(c3ccccc3)CC2c2ccc(OC)cc2)=NC1=O` (stereo not drawn) [Compound 7c, Ethyl-2-(2-(5-(4-methoxyphenyl)-3-phenyl-4,5-dihydro-1H-pyrazol-1-yl)-4-oxothiazol-5(4H)-ylidene)acetate], the melting point was 236 to 238 °C. Further, the IC50 in data set [1] was found to be 198 ± 18 nM.
In the same order, the values of `CCOC(=O)C=C1SC(N2N=C(c3ccccc3)CC2c2ccccc2)=NC1=O` (stereo not drawn) [Compound 7n, Ethyl-2-(2-(3,5-diphenyl-4,5-dihydro-1H-pyrazol-1-yl)-4-oxothiazol-5(4H)-ylidene)acetate] are 216 to 218 °C and 2990 ± 734 nM.

(Values after PMC9654533, “Potent Alkaline Phosphatase Inhibitors, Pyrazolo-Oxothiazolidines: Synthesis, Biological Evaluation, Molecular Docking, and Kinetic Studies” (International Journal of Molecular Sciences, 2022).)
